Experimental data taken from patent publication US9815796B2 (Merck Sharp & Dohme Corp., priority 2013, dated 2017).
Like-named read-outs stand apart in the source and are kept apart here.

What was measured:
Rhesus PDE2A3 = Rhesus PDE2A3 (Macaca mulatta, UniProt B3VTJ2); experiment: PDE2 fluorescence polarization (IMAP FP) inhibition assay, rhesus enzyme; type: biochemical, rhesus macaque
Procedure, shortened: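 Rhesus PDE2A3 came from lysate of transiently transfected AD293 cells, diluted to give 20% substrate conversion. Substrate was 50 nM FAM-cAMP with 1 uM cGMP activator in Tris pH 7.2/MgCl2 buffer, run 60 min at room temperature over 10-point 3-fold dilutions in 1% DMSO. Read-out was IMAP fluorescence polarization (mP) after ≥1 h binding.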

human PDE2A1 = human PDE2A1 (Homo sapiens (Human), UniProt O00408); experiment: IMAP FP PDE selectivity panel, human PDE2A1; type: biochemical
Procedure, shortened: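 GST-tagged human PDE2A1 expressed in insect cells, run at room temperature for 60 min with 50 nM FAM-cAMP containing 1000 nM cGMP, pH 7.2 Tris/MgCl2 buffer. IMAP fluorescence polarization read after binding step.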

[1] = Rhesus PDE2, Lab A, read-out: Rhesus PDE2 Ki (nM) - Lab A
[2] = Human PDE2, Lab A, read-out: Human PDE2 Ki (nM) - Lab A
[3] = Rhesus PDE2, Lab B, read-out: Rhesus PDE2 Ki (nM) - Lab B
[4] = Human PDE2, Lab B, read-out: Human PDE2 Ki (nM) - Lab B

human PDE2A1, sequence (O00408 other isoform, or with tags, fused parts or gaps): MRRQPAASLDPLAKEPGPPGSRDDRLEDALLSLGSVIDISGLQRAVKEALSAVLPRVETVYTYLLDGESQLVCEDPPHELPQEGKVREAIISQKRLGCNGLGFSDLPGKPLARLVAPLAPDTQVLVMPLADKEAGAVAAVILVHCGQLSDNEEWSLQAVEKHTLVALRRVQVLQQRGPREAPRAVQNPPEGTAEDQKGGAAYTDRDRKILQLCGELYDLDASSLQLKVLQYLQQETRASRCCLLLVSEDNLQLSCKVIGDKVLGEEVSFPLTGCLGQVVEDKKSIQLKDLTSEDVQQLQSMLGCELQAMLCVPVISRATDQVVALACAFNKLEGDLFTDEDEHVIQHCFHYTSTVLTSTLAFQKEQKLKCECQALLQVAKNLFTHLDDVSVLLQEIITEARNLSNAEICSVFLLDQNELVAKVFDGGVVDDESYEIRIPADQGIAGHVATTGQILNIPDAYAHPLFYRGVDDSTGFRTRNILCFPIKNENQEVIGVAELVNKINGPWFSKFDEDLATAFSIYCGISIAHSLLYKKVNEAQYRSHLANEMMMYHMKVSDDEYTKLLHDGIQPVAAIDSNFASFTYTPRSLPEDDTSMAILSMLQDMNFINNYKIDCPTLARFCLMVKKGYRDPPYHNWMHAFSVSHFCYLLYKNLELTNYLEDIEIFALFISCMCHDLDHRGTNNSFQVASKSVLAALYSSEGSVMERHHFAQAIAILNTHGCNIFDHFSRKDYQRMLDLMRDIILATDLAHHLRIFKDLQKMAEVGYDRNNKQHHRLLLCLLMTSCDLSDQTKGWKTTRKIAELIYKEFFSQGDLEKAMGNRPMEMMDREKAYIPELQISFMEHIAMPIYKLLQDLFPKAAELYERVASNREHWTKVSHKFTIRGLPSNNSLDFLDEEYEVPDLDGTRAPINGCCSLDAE
Rhesus PDE2A3, sequence (B3VTJ2 1-941): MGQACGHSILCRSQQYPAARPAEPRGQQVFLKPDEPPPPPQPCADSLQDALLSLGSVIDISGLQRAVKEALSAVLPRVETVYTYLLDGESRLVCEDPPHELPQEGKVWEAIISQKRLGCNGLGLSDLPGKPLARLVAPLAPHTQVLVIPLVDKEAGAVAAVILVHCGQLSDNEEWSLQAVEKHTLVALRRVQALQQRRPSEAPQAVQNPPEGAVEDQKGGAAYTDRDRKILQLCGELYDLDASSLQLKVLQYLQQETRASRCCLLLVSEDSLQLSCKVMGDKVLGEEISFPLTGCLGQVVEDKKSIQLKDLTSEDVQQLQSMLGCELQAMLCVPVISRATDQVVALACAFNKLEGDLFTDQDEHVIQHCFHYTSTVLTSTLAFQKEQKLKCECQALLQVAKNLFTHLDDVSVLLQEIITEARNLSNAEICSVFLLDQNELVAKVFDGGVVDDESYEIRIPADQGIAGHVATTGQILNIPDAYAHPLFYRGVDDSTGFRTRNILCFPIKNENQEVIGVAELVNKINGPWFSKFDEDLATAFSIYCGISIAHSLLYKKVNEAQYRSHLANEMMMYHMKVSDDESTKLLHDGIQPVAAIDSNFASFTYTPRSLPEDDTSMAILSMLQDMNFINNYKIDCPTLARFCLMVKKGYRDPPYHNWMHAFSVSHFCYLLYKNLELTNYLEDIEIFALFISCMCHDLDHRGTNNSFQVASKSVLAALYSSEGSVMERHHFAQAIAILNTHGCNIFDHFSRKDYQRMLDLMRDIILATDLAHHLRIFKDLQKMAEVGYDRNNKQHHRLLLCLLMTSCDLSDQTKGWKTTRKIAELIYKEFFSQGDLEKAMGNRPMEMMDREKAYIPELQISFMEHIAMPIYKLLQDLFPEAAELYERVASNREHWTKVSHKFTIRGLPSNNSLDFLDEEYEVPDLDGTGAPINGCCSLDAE

| Ki (Rhesus PDE2A3; [1]) [nM] | Ki (human PDE2A1; [2]) [nM] | Ki (Rhesus PDE2A3; [3]) [nM] | Ki (human PDE2A1; [4]) [nM] | SMILES |
| --- | --- | --- | --- | --- |
| 45 | 28 |  |  | C[C@@H](NC(=O)c1cc(=O)[nH]c(-c2ncccn2)n1)c1ccc(-c2ccccc2)cc1 [Example 287, N-[(1R)-1-biphenyl-4-ylethyl]-6-oxo-1,6-dihydro-2,2′-bipyrimidine-4-carboxamide] |
| 11 | 10 |  |  | C[C@@H](NC(=O)c1cc(=O)[nH]c(-c2ncccn2)n1)c1ccc(C(F)(F)F)cc1 [Example 291, 6-oxo-N-{(1R)-1-[4-(trifluoromethyl)phenyl]ethyl}-1,6-dihydro-2,2′-bipyrimidine-4-carboxamide] |
| 18 | 13 |  |  | CC(C)c1ccc([C@@H](C)NC(=O)c2cc(=O)[nH]c(C3CC3)n2)cc1 [Example 298, 2-cyclopropyl-N-{(1R)-1-[4-(1-methylethyl)phenyl]ethyl}-6-oxo-1,6-dihydropyrimidine-4-carboxamide] |
| 53 | 66 |  |  | Cc1nc(C(=O)N[C@H](C)c2cccc3ccccc23)cc(=O)[nH]1 [Example 301, (R)-2-methyl-N-(1-(naphthalen-1-yl)ethyl)-6-oxo-1,6-dihydropyrimidine-4-carboxamide] |
| 208 | 215 |  |  | Cc1nc(C(=O)NC(C)c2ccc3cc[nH]c3c2)cc(=O)[nH]1 (stereo not drawn) [Example 303, N-(1-(1H-indol-6-yl)ethyl)-2-methyl-6-oxo-1,6-dihydropyrimidine-4-carboxamide] |
| 91 | 76 |  |  | Cc1nc(C(=O)N[C@H](C)c2ccc(OC(F)F)cc2)cc(=O)[nH]1 [Example 304, (R)-N-(1-(4-(difluoromethoxy)phenyl)ethyl)-2-methyl-6-oxo-1,6-dihydropyrimidine-4-carboxamide] |
| 13 | 7.1 |  |  | Cc1nc(C(=O)N[C@@H](c2ccc(C(F)(F)F)cc2)C(C)C)cc(=O)[nH]1 [Example 316, 2-methyl-N-{(1R)-2-methyl-1-[4-(trifluoromethyl)phenyl]propyl}-6-oxo-1,6-dihydropyrimidine-4-carboxamide] |
| 205 | 171 |  |  | Cc1nc(C(=O)N[C@H](C)c2ccc(-c3ccc(F)cc3)cc2)cc(=O)[nH]1 [Example 322, N-[(1R)-1-(4′-fluorobiphenyl-4-yl)ethyl]-2-methyl-6-oxo-1,6-dihydropyrimidine-4-carboxamide] |
| 66 | 50 |  |  | Cc1nc(C(=O)N[C@H](C)c2ccc(-c3cccc(F)c3)cc2)cc(=O)[nH]1 [Example 323, N-[(1R)-1-(3′-fluorobiphenyl-4-yl)ethyl]-2-methyl-6-oxo-1,6-dihydropyrimidine-4-carboxamide] |
| 131 | 138 |  |  | Cc1nc(C(=O)N[C@H](C)c2ccc(-c3ccccc3F)cc2)cc(=O)[nH]1 [Example 324, N-[(1R)-1-(2′-fluorobiphenyl-4-yl)ethyl]-2-methyl-6-oxo-1,6-dihydropyrimidine-4-carboxamide] |
| 60 | 59 |  |  | Cc1nc(C(=O)NC(c2ccc(C(F)(F)F)cc2)c2nnn[nH]2)cc(=O)[nH]1 (stereo not drawn) [Example 336, 2-Methyl-6-oxo-N-{1H-tetrazol-5-yl[4-(trifluoromethyl)phenyl]methyl}-1,6-dihydropyrimidine-4-carboxamide] |

More lines, now with the values behind:

| SMILES | Ki (Rhesus PDE2A3; [1]) [nM] | Ki (human PDE2A1; [2]) [nM] | Ki (Rhesus PDE2A3; [3]) [nM] | Ki (human PDE2A1; [4]) [nM] |
| --- | --- | --- | --- | --- |
| O=C(NC1(c2ccc(C(F)(F)F)cc2)CCC1)c1cc(=O)[nH]c(-c2ncccn2)n1 [Example 286, 6-oxo-N-{1-[4-(trifluoromethyl)phenyl]cyclobutyl}-1,6-dihydro-2,2′-bipyrimidine-4-carboxamide] | 83 | 60 |  |  |
| CC(C)(NC(=O)c1cc(=O)[nH]c(-c2ncccn2)n1)c1ccc(C(F)(F)F)cc1 [Example 288, N-{1-methyl-1-[4-(trifluoromethyl)phenyl]ethyl}-6-oxo-1,6-dihydro-2,2′-bipyrimidine-4-carboxamide] | 152 | 123 |  |  |
| O=C(NC1(c2ccc(OC(F)(F)F)cc2)CCC1)c1cc(=O)[nH]c(-c2ncccn2)n1 [Example 290, 6-oxo-N-(1-(4-(trifluoromethoxy)phenyl)cyclobutyl)-1,6-dihydro-[2,2′-bipyrimidine]-4-carboxamide] | 942 | 540 |  |  |
| O=C(NC1(c2ccc(C(F)(F)F)cc2)CC1)c1cc(=O)[nH]c(C2CC2)n1 [Example 292, 2-cyclopropyl-6-oxo-N-{1-[4-(trifluoromethyl)phenyl]cyclopropyl}-1,6-dihydropyrimidine-4-carboxamide] | 14 | 12 |  |  |
| CC(C)(NC(=O)c1cc(=O)[nH]c(C2CC2)n1)c1ccc(C(F)(F)F)cc1 [Example 293, 2-cyclopropyl-N-{1-methyl-1-[4-(trifluoromethyl)phenyl]ethyl}-6-oxo-1,6-dihydropyrimidine-4-carboxamide] | 22 | 20 |  |  |
| O=C(NC(CO)c1ccc(C(F)(F)F)cc1)c1cc(=O)[nH]c(C2CC2)n1 (stereo not drawn) [Example 294, 2-cyclopropyl-N-{2-hydroxy-1-[4-(trifluoromethyl)phenyl]ethyl}-6-oxo-1,6-dihydropyrimidine-4-carboxamide] | 69 | 46 |  |  |
| CC(C)(NC(=O)c1cc(=O)[nH]c(C2CC2)n1)c1ccc(OC(F)(F)F)cc1 [Example 295, 2-cyclopropyl-N-{1-methyl-1-[4-(trifluoromethoxy)phenyl]ethyl}-6-oxo-1,6-dihydropyrimidine-4-carboxamide] | 127 | 77 |  |  |
| C[C@@H](NC(=O)c1cc(=O)[nH]c(C2CC2)n1)c1ccc(OC(F)(F)F)c(F)c1 [Example 296, 2-cyclopropyl-N-{(1R)-1-[3-fluoro-4-(trifluoromethoxy)phenyl]ethyl}-6-oxo-1,6-dihydropyrimidine-4-carboxamide] | 6.3 | 3.1 |  |  |
| C[C@@H](NC(=O)c1cc(=O)[nH]c(C2CC2)n1)c1ccc(OC(F)(F)F)cc1F [Example 297, 2-cyclopropyl-N-{(1R)-1-[2-nuoro-4-(trifluoromethoxy)phenyl]ethyl}-6-oxo-1,6-dihydropyrimidine-4-carboxamide] | 30 | 16 |  |  |
| O=C(NC1(c2ccc(OC(F)(F)F)cc2)CC1)c1cc(=O)[nH]c(C2CC2)n1 [Example 299, 2-cyclopropyl-6-oxo-N-{1-[4-(trifluoromethoxy)phenyl]cyclopropyl}-1,6-dihydropyrimidine-4-carboxamide] | 14 | 9.1 |  |  |
| O=C(NC1(c2ccc(OC(F)(F)F)cc2)CCC1)c1cc(=O)[nH]c(C2CC2)n1 [Example 300, 2-cyclopropyl-6-oxo-N-{1-[4-(trifluoromethoxy)phenyl]cyclobutyl}-1,6-dihydropyrimidine-4-carboxamide] | 88 | 55 |  |  |
| Cc1nc(C(=O)NC(C(=O)N(C)C)c2ccc(C(F)(F)F)cc2)cc(=O)[nH]1 (stereo not drawn) [Example 329, N-{2-(dimethylamino)-2-oxo-1-[4-(trifluoromethyl)phenyl]ethyl}-2-methyl-6-oxo-1,6-dihydropyrimidine-4-carboxamide] | 1420 | 565 |  |  |
| CCc1c(C(=O)N[C@H](C)c2ccc(C(F)(F)F)cc2)nc[nH]c1=O [Example 332, (R)-5-ethyl-6-oxo-N-(1-(4-(trifluoromethyl)phenyl)ethyl)-1,6-dihydropyrimidine-4-carboxamide] | 2900 | 2270 |  |  |
| CCc1nc(C(=O)N[C@H](C)c2ccc(C(F)(F)F)cc2)c(CC)c(=O)[nH]1 [Example 333, (R)-2,5-diethyl-6-oxo-N-(1-(4-(trifluoromethyl)phenyl)ethyl)-1,6-dihydropyrimidine-4-carboxamide] | 89 | 80 |  |  |
| C[C@@H](NC(=O)c1nc[nH]c(=O)c1C1CCC1)c1ccc(C(F)(F)F)cc1 [Example 334, (R)-5-cyclobutyl-6-oxo-N-(1-(4-(trifluoromethyl)phenyl)ethyl)-1,6-dihydropyrimidine-4-carboxamide] | 2830 | 2370 |  |  |
| C[C@@H](NC(=O)c1nc(C2CCC2)[nH]c(=O)c1C1CCC1)c1ccc(C(F)(F)F)cc1 [Example 335, (R)-2,5-dicyclobutyl-6-oxo-N-(1-(4-(trifluoromethyl)phenyl)ethyl)-1,6-dihydropyrimidine-4-carboxamide] | 1320 | 1220 |  |  |
| CC(C)(C)[C@@H](NC(=O)c1cc(=O)[nH]c(-c2ccccc2)n1)c1ccc(C(F)(F)F)cc1 [Example 337, N-{(1R)-2,2-dimethyl-1-[4-(trifluoromethyl)phenyl]propyl}-6-oxo-2-phenyl-1,6-dihydropyrimidine-4-carboxamide] | 0.4 |  | 1.2 | 1.1 |
| COc1cc(CNC(=O)c2cc(=O)[nH]c(-c3ccccc3)n2)cc(OC)c1OC [Example 338, 6-oxo-2-phenyl-N-(3,4,5-trimethoxybenzyl)-1,6-dihydropyrimidine-4-carboxamide] | 29 |  | 71 | 65 |
| CC(C)(NC(=O)c1cc(=O)[nH]c(-c2ccccc2)n1)c1ccc(Br)cc1 [Example 340, N-[1-(4-bromophenyl)-1-methylethyl]-6-oxo-2-phenyl-1,6-dihydropyrimidine-4-carboxamide] | 49 |  | 109 | 83 |
| CSCC(NC(=O)c1cc(=O)[nH]c(-c2ccccc2)n1)c1ccc(C(F)(F)F)cc1 (stereo not drawn) [Example 341, N-{2-(methylsulfanyl)-1-[4-(trifluoromethyl)phenyl]ethyl}-6-oxo-2-phenyl-1,6-dihydropyrimidine-4-carboxamide] | ~11 |  | 24 | 19 |
